Experimental findings from patent publication US20250163104A1, “MACROCYCLIC IMMUNOMODULATORS” (priority 2021, published 2025) are described below.

Where a SMILES comes first, the peptide text is derived from it. Bridges are numbered along the chain shown (N, C = ends). [ ]: non-standard residue; d: D form. The star is where a group is joined. ξ: configuration not given here. Bip = N[C@@H](Cc1ccc(-c2ccccc2)cc1)C(=O)O; Phe(3-Me) = Cc1cccc(C[C@H](N)C(=O)O)c1; 3Pal = N[C@@H](Cc1cccnc1)C(=O)O; 4Pal = N[C@@H](Cc1ccncc1)C(=O)O; Cit = NC(=O)NCCC[C@H](N)C(=O)O; Carboxymethyl = O=C(O)C*; Orn = NCCC[C@H](N)C(=O)O; Dab = NCC[C@H](N)C(=O)O; Dap = NC[C@H](N)C(=O)O; ξA = CC(N)C(=O)O

In one assay the target is T1, human PD-1 / PD-L1-Ig binding on Jurkat cell line over-expressing human PD-1 (Jurkat-PD-1) (Homo sapiens, UniProt Q15116).
T1 construct: expressed in transfected cells; host or cells: Jurkat
T1 sequence (Q15116 25-288): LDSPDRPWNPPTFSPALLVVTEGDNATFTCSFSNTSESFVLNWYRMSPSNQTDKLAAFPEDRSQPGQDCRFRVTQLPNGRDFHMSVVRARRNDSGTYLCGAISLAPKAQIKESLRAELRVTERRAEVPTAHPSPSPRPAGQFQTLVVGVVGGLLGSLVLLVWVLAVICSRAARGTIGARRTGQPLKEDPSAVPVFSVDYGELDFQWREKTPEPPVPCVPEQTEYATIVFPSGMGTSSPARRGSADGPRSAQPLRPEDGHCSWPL
Kind of assay: Jurkat-PD-1 Cell Binding High-Content Screening Assay (CBA). In kind it is cell-based. The settings on record: Jurkat HPD1_PDL1 IC50, Jurkat-PD-1 cells, PE-labeled PD-L1-Ig 20 nM final. In outline:
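PE-PD-L1-Ig 20 nM final; cells in DMEM/10% FCS; cpd pre-incubation 2 h, 37° C; ligand 1 h; PFA fix + Hoechst 33342; high-content imaging read-out.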
Consider `CC[C@H](C)[C@@H]1NC(=O)[C@H](Cc2ccc(-c3ccccc3)cc2)NC(=O)[C@H](C(C)C)NC(=O)[C@H](Cc2cccc(C)c2)NC(=O)[C@H](CC(=O)O)NC(=O)[C@H](Cc2ccc(OCC(=O)O)cc2)NC(=O)[C@H](Cc2cccnc2)NC(=O)CSC[C@@H](C(=O)N[C@@H](C)C(N)=O)NC(=O)[C@H]([C@@H](C)O)NC(=O)[C@H](C(C)C)NC(=O)[C@H](CC(C)C)NC(=O)[C@H](CCN)NC(=O)[C@@H](CC(C)C)NC(=O)[C@H](CCCN)NC1=O` [Compound 1224], for which the IC50 – broadly, the midpoint of a concentration-inhibition curve – was 11.3 nM.

Still in this assay, the particulars now being: Jurkat-PD-1 cells, PE-labeled PD-L1-Ig 20 nM final; read-out: Jurkat HPD1_PDL1 IC50.
Consider `Cc1cccc(C[C@@H]2NC(=O)[C@H](CC(=O)O)NC(=O)[C@H](Cc3ccncc3)NC(=O)[C@H](CN)NC(=O)CSC[C@@H](C(=O)N[C@@H](C)C(N)=O)NC(=O)[C@H]([C@@H](C)O)NC(=O)[C@H](C(C)C)NC(=O)[C@H](CC(C)C)NC(=O)[C@H](CCN)NC(=O)[C@@H](CC(C)C)NC(=O)[C@H](CCCN)NC(=O)[C@H](C(C)C)NC(=O)[C@H](Cc3ccc(-c4ccccc4)cc3)NC(=O)[C@H](C(C)C)NC2=O)c1` [Compound 1223] ({CH2CO}-[Dap][4Pal]D[Phe(3-Me)]V[Bip]V[Orn][dL][Dab]LVTCA-NH2; thioether N-14), for which the IC50 came to 6.1 nM.
Same read-out and setting: to `Cc1cccc(C[C@@H]2NC(=O)[C@H](CC(=O)O)NC(=O)[C@H](Cc3ccc(OCC(=O)O)cc3)NC(=O)[C@H](Cc3cccnc3)NC(=O)CSC[C@@H](C(=O)N[C@@H](C)C(N)=O)NC(=O)[C@H]([C@@H](C)O)NC(=O)[C@H](C(C)C)NC(=O)[C@H](CC(C)C)NC(=O)[C@H](CCN)NC(=O)[C@@H](CC(C)C)NC(=O)[C@H](CCCN)NC(=O)[C@H](CCCNC(N)=O)NC(=O)[C@H](Cc3ccc(-c4ccccc4)cc3)NC(=O)[C@H](C(C)C)NC2=O)c1` [Compound 1225] ({CH2CO}-[3Pal]Y(Carboxymethyl)D[Phe(3-Me)]V[Bip][Cit][Orn][dL][Dab]LVTCA-NH2; thioether N-14) belongs 6.2 nM; to `CC(C)C[C@@H]1NC(=O)[C@H](Cc2c[nH]c3ccccc23)NC(=O)[C@H](CC(=O)O)NC(=O)[C@H](Cc2ccc(O)cc2)NC(=O)[C@H](Cc2ccccc2)NC(=O)CSC[C@@H](C(=O)N[C@@H](C)C(N)=O)NC(=O)[C@H](CO)NC(=O)[C@H](C(C)C)NC(=O)[C@H](CC(C)C)NC(=O)[C@H](CC(N)=O)NC(=O)[C@@H](CC(C)C)NC(=O)[C@H](CN)NC(=O)[C@H](CCC(=O)O)NC(=O)[C@H](Cc2ccc(-c3ccccc3)cc2)NC1=O` [Compound 1226] ({CH2CO}-FYDWL[Bip]E[Dap][dL]NLVSCA-NH2; thioether N-14), 32.2 nM.
Same read-out and setting: with `CC(C)C[C@@H]1NC(=O)[C@H](Cc2c[nH]c3ccccc23)NC(=O)[C@H](CC(=O)O)NC(=O)[C@H](Cc2ccc(O)cc2)NC(=O)[C@H](Cc2ccccc2)NC(=O)CSC[C@@H](C(=O)N[C@@H](C)C(N)=O)NC(=O)[C@H](CO)NC(=O)[C@H](C(C)C)NC(=O)[C@H](CC(C)C)NC(=O)[C@H](CCN)NC(=O)[C@@H](CC(C)C)NC(=O)[C@H](CCN)NC(=O)[C@H](CCCNC(N)=O)NC(=O)[C@H](Cc2ccc(-c3ccccc3)cc2)NC1=O` [Compound 1228] ({CH2CO}-FYDWL[Bip][Cit][Dab][dL][Dab]LVSCA-NH2; thioether N-14) the figure was 17.5 nM; with `CC(C)C[C@@H]1NC(=O)[C@H](Cc2c[nH]c3ccccc23)NC(=O)[C@H](CC(=O)O)NC(=O)[C@H](Cc2ccc(O)cc2)NC(=O)[C@H](Cc2ccccc2)NC(=O)CSC[C@@H](C(=O)N[C@@H](C)C(N)=O)NC(=O)[C@H](CO)NC(=O)[C@H](C(C)C)NC(=O)[C@H](CC(C)C)NC(=O)[C@H](CCN)NC(=O)[C@@H](CC(C)C)NC(=O)[C@H](CCN)NC(=O)[C@H](CCC(=O)O)NC(=O)[C@H](Cc2ccc(-c3ccccc3)cc2)NC1=O` [Compound 1229] ({CH2CO}-FYDWL[Bip]E[Dab][dL][Dab]LVSCA-NH2; thioether N-14), 14.5 nM; with `CC[C@H](C)[C@@H]1NC(=O)[C@H](Cc2ccc(-c3ccccc3)cc2)NC(=O)[C@H](CC(C)C)NC(=O)[C@H](Cc2c[nH]c3ccccc23)NC(=O)[C@H](CC(=O)O)NC(=O)[C@H](Cc2ccc(O)cc2)NC(=O)[C@H](Cc2ccccc2)NC(=O)CSC[C@@H](C(=O)NCC(N)=O)NC(=O)[C@H](CO)NC(=O)[C@H](C(C)C)NC(=O)[C@H](CC(C)C)NC(=O)[C@H](CCN)NC(=O)[C@@H](CC(C)C)NC(=O)[C@H](CCCN)NC1=O` [Compound 1230] ({CH2CO}-FYDWL[Bip]I[Orn][dL][Dab]LVSCG-NH2; thioether N-14), 18.1 nM.
Same read-out and setting: to `CC(C)C[C@@H]1NC(=O)[C@H](Cc2c[nH]c3ccccc23)NC(=O)[C@H](CC(=O)O)NC(=O)[C@H](Cc2ccc(O)cc2)NC(=O)[C@H](Cc2ccccc2)NC(=O)CSC[C@@H](C(=O)N[C@@H](C)C(N)=O)NC(=O)[C@H](CO)NC(=O)[C@H](C(C)C)NC(=O)[C@H](CC(C)C)NC(=O)[C@H](CC(N)=O)NC(=O)[C@@H](CC(C)C)NC(=O)[C@H](CCCN)NC(=O)[C@H](CCCNC(N)=O)NC(=O)[C@H](Cc2ccc(-c3ccccc3)cc2)NC1=O` [Compound 1234] ({CH2CO}-FYDWL[Bip][Cit][Orn][dL]NLVSCA-NH2; thioether N-14) belongs 36.6 nM; to `CC(C)C[C@@H]1NC(=O)[C@H](Cc2c[nH]c3ccccc23)NC(=O)[C@H](CC(=O)O)NC(=O)[C@H](Cc2ccc(O)cc2)NC(=O)[C@H](Cc2ccccc2)NC(=O)CSC[C@@H](C(=O)N[C@@H](C)C(N)=O)NC(=O)[C@H](CO)NC(=O)[C@H](C(C)C)NC(=O)[C@H](CC(C)C)NC(=O)[C@H](CC(N)=O)NC(=O)[C@@H](CC(C)C)NC(=O)[C@H](CCCN)NC(=O)[C@H](CCC(=O)O)NC(=O)[C@H](Cc2ccc(-c3ccccc3)cc2)NC1=O` [Compound 1235] ({CH2CO}-FYDWL[Bip]E[Orn][dL]NLVSCA-NH2; thioether N-14), 21 nM; to `CC(C)C[C@@H]1NC(=O)[C@H](CCN)NC(=O)[C@@H](CC(C)C)NC(=O)[C@H](CCCN)NC(=O)[C@H](C(C)C)NC(=O)[C@H](Cc2ccc(-c3ccccc3)cc2)NC(=O)[C@H](C(C)C)NC(=O)[C@H](Cc2c[nH]c3ccccc23)NC(=O)[C@H](CC(=O)O)NC(=O)[C@H](Cc2ccncc2)NC(=O)[C@H](CN)NC(=O)CSC[C@@H](C(=O)NC(C)C(N)=O)NC(=O)[C@H]([C@@H](C)O)NC(=O)[C@H](C(C)C)NC1=O` (stereo partly drawn) [Compound 1236] ({CH2CO}-[Dap][4Pal]DWV[Bip]V[Orn][dL][Dab]LVTC[ξA]-NH2; thioether N-14), 17.4 nM.
`CC[C@H](C)[C@@H]1NC(=O)[C@H](Cc2ccc(-c3ccccc3)cc2)NC(=O)[C@H](C(C)C)NC(=O)[C@H](Cc2c[nH]c3ccccc23)NC(=O)[C@H](CC(=O)O)NC(=O)[C@H](Cc2ccncc2)NC(=O)[C@H](CN)NC(=O)CSC[C@@H](C(=O)N[C@@H](C)C(N)=O)NC(=O)[C@H]([C@@H](C)O)NC(=O)[C@H](C(C)C)NC(=O)[C@H](CC(C)C)NC(=O)[C@H](CCN)NC(=O)[C@@H](CC(C)C)NC(=O)[C@H](CCCN)NC1=O` [Compound 1238] ({CH2CO}-[Dap][4Pal]DWV[Bip]I[Orn][dL][Dab]LVTCA-NH2; thioether N-14): the IC50 was determined as 15 nM.
As to `Cc1cccc(C[C@@H]2NC(=O)[C@H](CC(=O)O)NC(=O)[C@H](Cc3ccncc3)NC(=O)[C@H](CN)NC(=O)CSC[C@@H](C(=O)N[C@@H](C)C(N)=O)NC(=O)[C@H]([C@@H](C)O)NC(=O)[C@H](C(C)C)NC(=O)[C@H](CC(C)C)NC(=O)[C@H](CCN)NC(=O)[C@@H](CC(C)C)NC(=O)[C@H](CCCN)NC(=O)[C@H](CCCNC(N)=O)NC(=O)[C@H](Cc3ccc(-c4ccccc4)cc3)NC(=O)[C@H](C(C)C)NC2=O)c1` [Compound 1239] ({CH2CO}-[Dap][4Pal]D[Phe(3-Me)]V[Bip][Cit][Orn][dL][Dab]LVTCA-NH2; thioether N-14), the IC50 worked out at 14.3 nM.
`CC(C)C[C@@H]1NC(=O)[C@H](CCN)NC(=O)[C@@H](CC(C)C)NC(=O)[C@H](CCCN)NC(=O)[C@H](CCCNC(N)=O)NC(=O)[C@H](Cc2ccc(-c3ccccc3)cc2)NC(=O)[C@H](C(C)C)NC(=O)[C@H](Cc2c[nH]c3ccccc23)NC(=O)[C@H](CC(=O)O)NC(=O)[C@H](Cc2ccncc2)NC(=O)[C@H](CN)NC(=O)CSC[C@@H](C(=O)N[C@@H](C)C(N)=O)NC(=O)[C@H]([C@@H](C)O)NC(=O)[C@H](C(C)C)NC1=O` [Compound 1240] ({CH2CO}-[Dap][4Pal]DWV[Bip][Cit][Orn][dL][Dab]LVTCA-NH2; thioether N-14): the IC50 came to 119 nM.
In the case of `CC(C)C[C@@H]1NC(=O)[C@H](CCN)NC(=O)[C@@H](CC(C)C)NC(=O)[C@H](CCCN)NC(=O)[C@H](CCCNC(N)=O)NC(=O)[C@H](Cc2ccc(-c3ccccc3)cc2)NC(=O)[C@H](C(C)C)NC(=O)[C@H](Cc2c[nH]c3ccccc23)NC(=O)[C@H](CC(=O)O)NC(=O)[C@H](Cc2ccc(OCC(=O)O)cc2)NC(=O)[C@H](CN)NC(=O)CSC[C@@H](C(=O)N[C@@H](C)C(N)=O)NC(=O)[C@H]([C@@H](C)O)NC(=O)[C@H](C(C)C)NC1=O` [Compound 1241] ({CH2CO}-[Dap]Y(Carboxymethyl)DWV[Bip][Cit][Orn][dL][Dab]LVTCA-NH2; thioether N-14), the IC50 stood at 27.8 nM.
Consider `CC(C)C[C@@H]1NC(=O)[C@H](CCN)NC(=O)[C@@H](CC(C)C)NC(=O)[C@H](CCCN)NC(=O)[C@H](CCCNC(=N)N)NC(=O)[C@H](Cc2ccc(-c3ccccc3)cc2)NC(=O)[C@H](C(C)C)NC(=O)[C@H](Cc2c[nH]c3ccccc23)NC(=O)[C@H](CC(=O)O)NC(=O)[C@H](Cc2ccc(OCC(=O)O)cc2)NC(=O)[C@H](Cc2ccncc2)NC(=O)CSC[C@@H](C(=O)N[C@@H](C)C(N)=O)NC(=O)[C@H]([C@@H](C)O)NC(=O)[C@H](C(C)C)NC1=O` [Compound 1242] ({CH2CO}-[4Pal]Y(Carboxymethyl)DWV[Bip]R[Orn][dL][Dab]LVTCA-NH2; thioether N-14), for which the IC50 amounted to 28.9 nM.
